Measured values taken from the supplement of paper PMC10307832.

Legend:
Assay in all cases: relative viability (nuclei count vs DMSO), 5 days (fraction); higher = more cells survive
Tipifarnib + Pictilisib = compound: Cn1cncc1[C@@](N)(c1ccc(Cl)cc1)c1ccc2c(c1)c(-c1cccc(Cl)c1)cc(=O)n2C [Tipifarnib] + CS(=O)(=O)N1CCN(Cc2cc3nc(-c4cccc5[nH]ncc45)nc(N4CCOCC4)c3s2)CC1 [Pictilisib] (partner 1 µM)
In short: (§1)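 Relative viability divides the nuclei count in treated wells by that in vehicle wells. Lung cancer cell lines were seeded in 1536-well plates, dosed by pin tool the next day, and fixed and stained after 5 days in one step with final 0.05% Triton X-100, 1% formaldehyde and 1 ug/ml Hoechst. Dosing was a single drug or a fixed anchor-drug dose plus five library-drug doses (not always all listed) in √10 steps, and values are medians of duplicate plates imaged at 4×.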

Tipifarnib + Phenformin = compound: Cn1cncc1[C@@](N)(c1ccc(Cl)cc1)c1ccc2c(c1)c(-c1cccc(Cl)c1)cc(=O)n2C [Tipifarnib] + N=C(N)NC(=N)NCCc1ccccc1 [Phenformin] (partner 250 µM)
In short: as §1

Tipifarnib + Palbociclib = compound: Cn1cncc1[C@@](N)(c1ccc(Cl)cc1)c1ccc2c(c1)c(-c1cccc(Cl)c1)cc(=O)n2C [Tipifarnib] + CC(=O)c1c(C)c2cnc(Nc3ccc(N4CCNCC4)cn3)nc2n(C2CCCC2)c1=O [Palbociclib] (partner 0.5 µM)
In short: as §1

Tipifarnib + Decitabine = compound: Cn1cncc1[C@@](N)(c1ccc(Cl)cc1)c1ccc2c(c1)c(-c1cccc(Cl)c1)cc(=O)n2C [Tipifarnib] + Nc1ncn([C@H]2C[C@H](O)[C@@H](CO)O2)c(=O)n1 [Decitabine] (partner 2 µM)
In short: as §1

Row | Cell Line | relative viability (Tipifarnib + Pictilisib; first compound 0.01 µM) | relative viability (Tipifarnib + Pictilisib; first compound 0.03162 µM) | relative viability (Tipifarnib + Pictilisib; first compound 0.1 µM) | relative viability (Tipifarnib + Pictilisib; first compound 0.3162 µM) | relative viability (Tipifarnib + Pictilisib; first compound 1 µM) | relative viability (Tipifarnib + Phenformin; first compound 0.01 µM) | relative viability (Tipifarnib + Phenformin; first compound 0.03162 µM) | relative viability (Tipifarnib + Phenformin; first compound 0.1 µM) | relative viability (Tipifarnib + Phenformin; first compound 0.3162 µM) | relative viability (Tipifarnib + Phenformin; first compound 1 µM) | relative viability (Tipifarnib + Palbociclib; first compound 0.01 µM) | relative viability (Tipifarnib + Palbociclib; first compound 0.03162 µM) | relative viability (Tipifarnib + Palbociclib; first compound 0.1 µM) | relative viability (Tipifarnib + Palbociclib; first compound 0.3162 µM) | relative viability (Tipifarnib + Palbociclib; first compound 1 µM) | relative viability (Tipifarnib + Decitabine; first compound 0.01 µM) | relative viability (Tipifarnib + Decitabine; first compound 0.03162 µM) | relative viability (Tipifarnib + Decitabine; first compound 0.1 µM) | relative viability (Tipifarnib + Decitabine; first compound 0.3162 µM) | relative viability (Tipifarnib + Decitabine; first compound 1 µM)
1 | LOU-NH91 | 0.517 | 0.446 | 0.499 | 0.501 | 0.388 | 0.652 | 0.589 | 0.688 | 0.569 | 0.414 | 0.494 | 0.516 | 0.592 | 0.541 | 0.58 | 0.804 | 0.791 | 0.801 | 0.664 | 0.738
2 | LU99A | 0.29 | 0.264 | 0.219 | 0.208 | 0.193 | 0.918 | 0.623 | 0.515 | 0.404 | 0.359 | 0.359 | 0.349 | 0.264 | 0.216 | 0.237 | 0.982 | 0.6 | 0.481 | 0.456 | 0.399
3 | NCI-H1395 | 0.578 | 0.547 | 0.538 | 0.47 | 0.521 | 0.444 | 0.398 | 0.428 | 0.436 | 0.348 | 0.646 | 0.617 | 0.591 | 0.503 | 0.5 | 0.7 | 0.674 | 0.59 | 0.626 | 0.654
4 | NCI-H460 | 0.42 | 0.396 | 0.379 | 0.275 | 0.126 | 0.516 | 0.376 | 0.295 | 0.224 | 0.0277 | 0.178 | 0.187 | 0.096 | 0.0611 | 0.0359 | 0.479 | 0.33 | 0.283 | 0.15 | 0.0821
5 | 201T | 0.633 | 0.682 | 0.664 | 0.559 | 0.551 | 0.493 | 0.441 | 0.457 | 0.402 | 0.362 | 0.352 | 0.373 | 0.357 | 0.341 | 0.354 | 0.875 | 0.841 | 0.88 | 0.783 | 0.816
6 | NCI-H1944 | 0.38 | 0.313 | 0.348 | 0.295 | 0.279 | 0.207 | 0.194 | 0.163 | 0.155 | 0.168 | 0.324 | 0.31 | 0.288 | 0.28 | 0.273 | 0.421 | 0.452 | 0.413 | 0.346 | 0.404
7 | NCI-H2405 | 0.406 | 0.412 | 0.351 | 0.405 | 0.404 | 0.384 | 0.371 | 0.374 | 0.415 | 0.361 | 0.562 | 0.517 | 0.525 | 0.492 | 0.517 | 0.783 | 0.688 | 0.721 | 0.683 | 0.73
8 | NCI-H1703 | 0.239 | 0.234 | 0.201 | 0.21 | 0.214 |  |  |  |  |  |  |  |  |  |  |  |  |  |  | 
9 | NCI-H1755 | 0.466 | 0.358 | 0.423 | 0.344 | 0.274 | 0.703 | 0.594 | 0.564 | 0.577 | 0.418 | 0.464 | 0.471 | 0.463 | 0.445 | 0.465 | 0.726 | 0.761 | 0.739 | 0.746 | 0.741
